Data on 1 substance can be found in PMC5908784, “Extracellular loops 2 and 3 of the calcitonin receptor selectively modify agonist binding and efficacy” (Biochemical Pharmacology, 2018).

In general, Ki refers to a measure of affinity in units of concentration, obtained from inhibition or displacement. Low readings indicate a stronger hold on the target, high ones a looser hold on the target.

Numbering of substitutions follows the chain as printed. Where no end group is shown, it is not given here.

Holding throughout (assay): Homologous whole cell competition binding
What all share (conditions): homologous competition of 125I-sCT(8-32), whole cells, mean ± S.E.M., SEM

In one assay the target is T1, hCTR V293A (Homo sapiens, UniProt P30988, V293A).
T1 construct: c-Myc (N); expressed in transfected cells
T1 sequence (P30988 25-474 V293A): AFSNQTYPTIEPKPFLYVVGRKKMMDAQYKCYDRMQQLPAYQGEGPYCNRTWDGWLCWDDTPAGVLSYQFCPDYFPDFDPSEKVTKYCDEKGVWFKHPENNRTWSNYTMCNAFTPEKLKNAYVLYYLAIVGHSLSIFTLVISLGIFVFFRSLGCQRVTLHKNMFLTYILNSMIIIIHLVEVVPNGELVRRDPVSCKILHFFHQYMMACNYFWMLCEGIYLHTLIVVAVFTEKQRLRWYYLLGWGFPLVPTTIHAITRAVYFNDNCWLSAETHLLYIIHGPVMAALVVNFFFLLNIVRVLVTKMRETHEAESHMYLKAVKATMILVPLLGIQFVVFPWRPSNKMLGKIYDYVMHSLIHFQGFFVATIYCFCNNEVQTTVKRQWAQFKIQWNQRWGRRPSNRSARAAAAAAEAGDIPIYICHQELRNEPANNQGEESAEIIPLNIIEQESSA
In short, it runs like this: (§1)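 Whole cells expressing the mutant receptor were incubated overnight at 4 °C with ^125I-sCT(8-32) (25–100 pM, two concentrations) and serial dilutions of unlabelled sCT(8-32). Bound radioactivity was gamma-counted; nonspecific binding was defined with 1 μM sCT(8-32). IC50 was fitted by 3-parameter logistic and Cheng-Prusoff-corrected to pKi.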

The next assay concerns the target T2, hCTR WT (Homo sapiens, UniProt P30988).
T2 construct: expressed in transfected cells
T2 sequence (P30988 25-474): T1 sequence (P30988 25-474 V293A) with A269V
In short, it runs like this: as §1

A further assay concerns the target T3, hCTR Y284A (Homo sapiens, UniProt P30988, Y284A).
T3 construct: expressed in transfected cells
T3 sequence (P30988 25-474 Y284A): T1 sequence (P30988 25-474 V293A) with Y260A, A269V
The method in brief: as §1

For a further assay, the target named is T4, hCTR Y372A (Homo sapiens, UniProt P30988, Y372A).
T4 construct: c-Myc (N); expressed in transfected cells
T4 sequence (P30988 25-474 Y372A): T1 sequence (P30988 25-474 V293A) with A269V, Y348A
The method in brief: as §1

“VLGKLSQELHKLQTYPRTNTGSGTP-NH2 [sCT(8-32)]”: the Ki on hCTR V293A was 0.178 nM; on hCTR WT, 0.2 nM; at hCTR Y284A it was 0.141 nM; at hCTR Y372A, 0.141 nM.
